Reference: patent publication US20250270213A1, “PI3Ka INHIBITORS” (Synnovation Therapeutics, Inc., priority 2022, published 2025)

System: T47D (PIK3CA H1047R) cells
Assay: pS473 AKT assay with 2.5% FBS, T47D cells
Format: cell-based
Settings: Homo sapiens, pSer473 AKT, DMEM with 2.5% FBS, 2 h treatment, read-out: T47D_IC50
Summary of the method: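 In-cell chemiluminescent ELISA of AKT Ser473 phosphorylation, using anti-pSer473 primary and HRP secondary antibodies on fixed cells. T47D (PIK3CA H1047R) cells had 2 h of compound treatment in DMEM containing 2.5% FBS; IC50 derived from dose-response.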

IC50, < 1000 nM:
[2H]C([2H])([2H])n1c(=O)c2cc(C)cc(C(C)Nc3ccc(Cl)nc3-c3cnn(C)c3)c2c2cnn(C3CCN(CC#N)C3)c21 (centres unmarked) [Compound 144, 2-(3-(9-(1-((6-chloro-2-(1-methyl-1H-pyrazol-4-yl)pyridin-3-yl)amino)ethyl)-7-methyl-4-(methyl-d3)-5-oxo-4,5-dihydro-3H-pyrazolo[3,4-c]isoquinolin-3-yl)pyrrolidin-1-yl)acetonitrile]
CCn1c(=O)c2cc(C)cc(C(C)Nc3ccc(Cl)nc3-c3ncn(C)n3)c2c2cnn(C3CCN(CCO)C3)c21 (centres unmarked) [Compound 145, 9-(1-((6-Chloro-2-(1-methyl-1H-1,2,4-triazol-3-yl)pyridin-3-yl)amino)ethyl)-4-ethyl-3-(1-(2-hydroxyethyl)pyrrolidin-3-yl)-7-methyl-3,4-dihydro-5H-pyrazolo[3,4-c]isoquinolin-5-one]
CCn1c(=O)c2cc(C)cc(C(C)Nc3ccc(Cl)nc3-c3ncn(C)n3)c2c2cnn(C3CCN(CC(C)(C)O)C3)c21 (centres unmarked) [Compound 146, 9-(1-((6-chloro-2-(1-methyl-1H-1,2,4-triazol-3-yl)pyridin-3-yl)amino)ethyl)-4-ethyl-3-(1-(2-hydroxy-2-methylpropyl)pyrrolidin-3-yl)-7-methyl-3,4-dihydro-5H-pyrazolo[3,4-c]isoquinolin-5-one]
CCn1c(=O)c2cc(C)cc(C(C)Nc3ccc(Cl)nc3-c3ncn(C)n3)c2c2cnn(C3CCN(C(C)C)C3)c21 (centres unmarked) [Compound 147, 9-(1-((6-chloro-2-(1-methyl-1H-1,2,4-triazol-3-yl)pyridin-3-yl)amino)ethyl)-4-ethyl-3-(1-isopropylpyrrolidin-3-yl)-7-methyl-3,4-dihydro-5H-pyrazolo[3,4-c]isoquinolin-5-one]
CCn1c(=O)c2cc(C)cc(C(C)Nc3ccc(Cl)nc3-c3ncn(C)n3)c2c2cnn(C3CCN(S(C)(=O)=O)C3)c21 (centres unmarked) [Compound 148, 9-(1-((6-Chloro-2-(1-methyl-1H-1,2,4-triazol-3-yl)pyridin-3-yl)amino)ethyl)-4-ethyl-7-methyl-3-(1-(methylsulfonyl)pyrrolidin-3-yl)-3,4-dihydro-5H-pyrazolo[3,4-c]isoquinolin-5-one]
CCn1c(=O)c2cc(C)cc(C(C)Nc3ccc(Cl)nc3-c3ncn(C)n3)c2c2cnn(C3CCN(C(C)=O)C3)c21 (centres unmarked) [Compound 149, 3-(1-acetylpyrrolidin-3-yl)-9-(1-((6-chloro-2-(1-methyl-1H-1,2,4-triazol-3-yl)pyridin-3-yl)amino)ethyl)-4-ethyl-7-methyl-3,4-dihydro-5H-pyrazolo[3,4-c]isoquinolin-5-one]
CCn1c(=O)c2cc(C)cc(C(C)Nc3ccc(Cl)nc3-c3ncn(C)n3)c2c2cnn(C3CCN(C(=O)OC)C3)c21 (centres unmarked) [Compound 150, methyl 3-(9-(1-((6-chloro-2-(1-methyl-1H-1,2,4-triazol-3-yl)pyridin-3-yl)amino)ethyl)-4-ethyl-7-methyl-5-oxo-4,5-dihydro-3H-pyrazolo[3,4-c]isoquinolin-3-yl)pyrrolidine-1-carboxylate]
Cc1cc(C(C)Nc2ccc(Cl)nc2-c2ccncc2F)c2c(c1)c(=O)n(C)c1c2cnn1C1CCN(C(=O)N(C)C)C1 (centres unmarked) [Compound 151, 3-(9-(1-((6-chloro-3′-fluoro-[2,4′-bipyridin]-3-yl)amino)ethyl)-4,7-dimethyl-5-oxo-4,5-dihydro-3H-pyrazolo[3,4-c]isoquinolin-3-yl)-N,N-dimethylpyrrolidine-1-carboxamide]
[2H]C([2H])([2H])n1c(=O)c2cc(C)cc(C(C)Nc3ccc(Cl)nc3-c3cnn(C)c3)c2c2cnn(C3CCN(CCC#N)C3)c21 (centres unmarked) [Compound 152, 3-(3-(9-(1-((6-Chloro-2-(1-methyl-1H-pyrazol-4-yl)pyridin-3-yl)amino)ethyl)-7-methyl-4-(methyl-d3)-5-oxo-4,5-dihydro-3H-pyrazolo[3,4-c]isoquinolin-3-yl)pyrrolidin-1-yl)propanenitrile]
[2H]C([2H])([2H])n1c(=O)c2cc(C)cc(C(C)Nc3ccc(Cl)nc3-c3nnn(C)n3)c2c2cnn(C3CCN(CCC#N)C3)c21 (centres unmarked) [Compound 153, 3-(3-(9-(1-((6-chloro-2-(2-methyl-2H-tetrazol-5-yl)pyridin-3-yl)amino)ethyl)-7-methyl-4-(methyl-d3)-5-oxo-4,5-dihydro-3H-pyrazolo[3,4-c]isoquinolin-3-yl)pyrrolidin-1-yl)propanenitrile]
[2H]C([2H])([2H])n1c(=O)c2cc(C)cc(C(C)Nc3ccc(Cl)nc3-c3cnn(C)c3)c2c2cnn(C3CCN(C(=O)CO)C3)c21 (centres unmarked) [Compound 154, 9-(1-((6-Chloro-2-(1-methyl-1H-pyrazol-4-yl)pyridin-3-yl)amino)ethyl)-3-(1-(2-hydroxyacetyl)pyrrolidin-3-yl)-7-methyl-4-(methyl-d3)-3,4-dihydro-5H-pyrazolo[3,4-c]isoquinolin-5-one]
[2H]C([2H])([2H])n1c(=O)c2cc(C)cc(C(C)Nc3ccc(Cl)nc3-c3cnn(C)c3)c2c2cnn(C3CCN(C(=O)CN(C)C)C3)c21 (centres unmarked) [Compound 155, 9-(1-((6-chloro-2-(1-methyl-1H-pyrazol-4-yl)pyridin-3-yl)amino)ethyl)-3-(1-(dimethylglycyl)pyrrolidin-3-yl)-7-methyl-4-(methyl-d3)-3,4-dihydro-5H-pyrazolo[3,4-c]isoquinolin-5-one]
[2H]C([2H])([2H])n1c(=O)c2cc(C)cc(C(C)Nc3ccc(Cl)nc3-c3cnn(C)c3)c2c2cnn(C3CCN(C(=O)c4ccnn4C)C3)c21 (centres unmarked) [Compound 156, 9-(1-((6-chloro-2-(1-methyl-1H-pyrazol-4-yl)pyridin-3-yl)amino)ethyl)-7-methyl-4-(methyl-d3)-3-(1-(1-methyl-1H-pyrazole-5-carbonyl)pyrrolidin-3-yl)-3,4-dihydro-5H-pyrazolo[3,4-c]isoquinolin-5-one]
[2H]C([2H])([2H])n1c(=O)c2cc(C)cc(C(C)Nc3ccc(Cl)nc3-c3cnn(C)c3)c2c2cnn(C3CCN(C(=O)C4(C#N)CC4)C3)c21 (centres unmarked) [Compound 157, 1-(3-(9-(1-((6-chloro-2-(1-methyl-1H-pyrazol-4-yl)pyridin-3-yl)amino)ethyl)-7-methyl-4-(methyl-d3)-5-oxo-4,5-dihydro-3H-pyrazolo[3,4-c]isoquinolin-3-yl)pyrrolidine-1-carbonyl)cyclopropane-1-carbonitrile]
Cc1cc(C(C)Nc2ccc(Cl)nc2-c2cnn(C)c2)c2c(c1)c(=O)n(C)c1c2cnn1C1CCN(C)CC1 (centres unmarked) [Compound 158, 9-(1-((6-Chloro-2-(1-methyl-1H-pyrazol-4-yl)pyridin-3-yl)amino)ethyl)-4,7-dimethyl-3-(1-methylpiperidin-4-yl)-3,4-dihydro-5H-pyrazolo[3,4-c]isoquinolin-5-one]
Cc1cc(C(C)Nc2ccc(Cl)nc2-c2ncn(C)n2)c2c(c1)c(=O)n(C)c1c2cnn1C1CCN(C)CC1 (centres unmarked) [Compound 159, 9-[1-[[6-chloro-2-(1-methyl-1,2,4-triazol-3-yl)-3-pyridyl]amino]ethyl]-4,7-dimethyl-3-(1-methyl-4-piperidyl)pyrazolo[3,4-c]isoquinolin-5-one]
CCn1cc(-c2nc(Cl)ccc2NC(C)c2cc(C)cc3c(=O)n(C)c4c(cnn4C4CCN(C)CC4)c23)cn1 (centres unmarked) [Compound 160, 9-[1-[[6-chloro-2-(1-ethylpyrazol-4-yl)-3-pyridyl]amino]ethyl]-4,7-dimethyl-3-(1-methyl-4-piperidyl)pyrazolo[3,4-c]isoquinolin-5-one]
Cc1cc(C(C)Nc2ccc(Cl)nc2-c2nnn(C)n2)c2c(c1)c(=O)n(C)c1c2cnn1C1CCN(C)CC1 (centres unmarked) [Compound 161, 9-[1-[[6-chloro-2-(2-methyltetrazol-5-yl)-3-pyridyl]amino]ethyl]-4,7-dimethyl-3-(1-methyl-4-piperidyl)pyrazolo[3,4-c]isoquinolin-5-one]
Cc1cc(C(C)Nc2ccc(Cl)nc2-c2nnco2)c2c(c1)c(=O)n(C)c1c2cnn1C1CCN(C)CC1 (centres unmarked) [Compound 162, 9-[1-[[6-chloro-2-(1,3,4-oxadiazol-2-yl)-3-pyridyl]amino]ethyl]-4,7-dimethyl-3-(1-methyl-4-piperidyl)pyrazolo[3,4-c]isoquinolin-5-one]
CNC(=O)c1ccc(-c2nc(Cl)ccc2NC(C)c2cc(C)cc3c(=O)n(C)c4c(cnn4C4CCN(C)CC4)c23)cn1 (centres unmarked) [Compound 163, 5-[6-chloro-3-[1-[4,7-dimethyl-3-(1-methyl-4-piperidyl)-5-oxo-pyrazolo[3,4-c]isoquinolin-9-yl]ethylamino]-2-pyridyl]-N-methyl-pyridine-2-carboxamide]
Cc1cc(C(C)Nc2ccc(Cl)nc2-c2noc(=O)[nH]2)c2c(c1)c(=O)n(C)c1c2cnn1C1CCN(C)CC1 (centres unmarked) [Compound 164, 3-[6-chloro-3-[1-[4,7-dimethyl-3-(1-methyl-4-piperidyl)-5-oxo-pyrazolo[3,4-c]isoquinolin-9-yl]ethylamino]-2-pyridyl]-4H-1,2,4-oxadiazol-5-one]
Cc1cc(C(C)Nc2ccc(Cl)nc2-c2cn(C)nc2C)c2c(c1)c(=O)n(C)c1c2cnn1C1CCN(C)CC1 (centres unmarked) [Compound 165, 9-[1-[[6-chloro-2-(1,3-dimethylpyrazol-4-yl)-3-pyridyl]amino]ethyl]-4,7-dimethyl-3-(1-methyl-4-piperidyl)pyrazolo[3,4-c]isoquinolin-5-one]
Cc1cc(C(C)Nc2ccc(Cl)nc2-c2ccc(=O)n(C)c2)c2c(c1)c(=O)n(C)c1c2cnn1C1CCN(C)CC1 (centres unmarked) [Compound 166, 9-[1-[[6-chloro-2-(1-methyl-6-oxo-3-pyridyl)-3-pyridyl]amino]ethyl]-4,7-dimethyl-3-(1-methyl-4-piperidyl)pyrazolo[3,4-c]isoquinolin-5-one]
